{
  "source": "patent US12251373B2",
  "about": "“Compounds and methods of treating retinal degeneration” (CASE WESTERN RESERVE UNIVERSITY, priority 2017, dated 2025)",
  "key": {"[1]": {"assay": "Quantification of YC-001 in mouse eye by HPLC", "type": "in vivo", "method": "To measure the amount of YC-001 in the eye following systemic delivery, YC-001 was administered to C57BL6 mice by i.p. injection at a dose of 200 mg kg^−1 bw. Mice then were euthanized at 30 min, 3 h and 24 h after these injections, and their eyes were removed for analysis. Eyes from two mice under the same treatment were homogenized on ice in 1 mL of PBS:methanol (1:1 ratio). Four-mL of hexanes were then added to the homogenized sample, and the mixture was vortexed for 15 s. The mixture was centrifuged at 3,220 g for 15 min at 4° C. to separate the hexanes from the aqueous layer. From the top hexane layer, 3.5 mL was transferred to a glass vial. This sample was then dried in a Savant speed vacuum concentrator (Thermofisher, Waltham, Massachusetts, USA) and dissolved in 300 μL methanol. One hundred-μL of dissolved sample were injected into an HPLC system connected to an Agilent Sil column (5 μm, 4.6×250 mm; Agilent Technologies, Santa Clara, CA) for separation with 10% ethyl acetate in hexanes at a flow rate 1.4 mL min^−1. A chromatogram of absorption at 340 nm was then obtained. A YC-001 standard was subjected to the same procedures as the ocular samples and used to establish a retention time at 13.2 min. By comparing ocular samples to its standard curve of YC-001, the amount of YC-001 was then quantified in pmol eye^−1 at different time points after its systemic administration. The identity of YC-001 in the peak fraction with a retention time of 13.2 min was confirmed by LC-MS using the same chromatography method as applied for HPLC."}, "[2]": {"system": "C57BL/6 mice", "assay": "Bw measurements, long-term toxicity by daily i.p. injections", "type": "in vivo", "conditions": "100 or 200 mg kg−1 bw daily i.p. Day 14 to 38, vs DMSO", "method": "To estimate the long-term toxicity of YC-001 in mice, we administered YC-001 to C57BL/6 mice by daily i.p. injections from Day 14 to 38 after birth with one of two doses, either 100 mg kg^−1 or 200 mg kg^−1 bw. Equivalent volumes of DMSO were injected into control groups. Bws of treated mice were measured daily. Each dosage group contained 3 mice including males and females."}, "[3]": {"system": "C57BL/6 mice", "assay": "Retinoid cycle analyses (11-cis-retinyl oxime after bleaching)", "type": "in vivo, mouse", "conditions": "200 mg kg−1 bw i.p., compared to DMSO", "method": "To test if treatment with YC-001 affects visual pigment regeneration, we quantified the 11-cis-retinyl oxime extracted from retinas of C57BL/6 mice after different periods of dark adaptation following exposure to bright light. Mice at 6 weeks of age were administered YC-001 at 200 mg kg^−1 bw via i.p. injection. At 30 min following YC-001 administration, eyes were dilated with 1% tropicamide. Mice then were anesthetized with a cocktail containing 20 mg mL^−1 of ketamine and 1.75 mg mL^−1 of xylazine at a dose of 4 μL g^−1 bw. Anesthetized mice were exposed to bright light with an intensity of 10,000 lux for 10 min to bleach about 90% of the rhodopsin pigment. Mice then were returned to the dark for recovery. Animals then were euthanized at 0, 2, 4, 6 or 24 h after bleaching and recovery in the dark, and their eyes were removed and homogenized in 1 mL of 1:1 PBS:ethanol mixture (v/v) containing 40 mM hydroxylamine. […] 11-cis-Retinyl oxime released from the regenerated rhodopsin pigments were separated on an Agilent Sil column (5 μm, 4.6×250 mm) with an isocratic flow of 10% ethyl acetate in hexanes (1.5 mL min^−1) and detected at 325 nm. Amounts of 11-cis-retinyl oximes per eye were quantified by normalizing the peak area to an 11-cis-retinyl oxime standard. 11-cis-Retinyl oximes were quantified in three eye samples per condition, and the means and s.d.s were calculated."}, "[4]": {"biological_target": "T1, rod opsin (Bos taurus, UniProt P02699)", "T1 construct": "ROS membranes were isolated from bovine retinas under dim red light; from tissue; host or cells: bovine retina rod outer segment (ROS) membranes, bleached with hydroxylamine", "T1 sequence (P02699 whole entry)": "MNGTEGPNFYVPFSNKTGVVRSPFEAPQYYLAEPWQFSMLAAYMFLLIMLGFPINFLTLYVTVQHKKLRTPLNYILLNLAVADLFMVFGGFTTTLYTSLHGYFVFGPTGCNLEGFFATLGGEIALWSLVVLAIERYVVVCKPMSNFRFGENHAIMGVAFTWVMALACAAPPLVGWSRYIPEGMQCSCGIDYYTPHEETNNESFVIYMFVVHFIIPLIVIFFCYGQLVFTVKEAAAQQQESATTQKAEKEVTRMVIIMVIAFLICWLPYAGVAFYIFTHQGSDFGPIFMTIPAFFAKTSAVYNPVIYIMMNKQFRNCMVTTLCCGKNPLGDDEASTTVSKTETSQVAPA", "assay": "Raman spectroscopy of rod opsin crystal soaked with compound", "type": "binding, bovine", "conditions": "Raman difference spectrum, FIG. 4f", "method": "Bleached ROS membranes bearing opsin were solubilized with either 20 mM BTP, pH 7.5, or 50 mM MES, pH 6.4, together with 130 mM NaCl, 1 mM MgCl2, 10% sucrose, and 1% n-octyl-β-D-glucopyranoside (OG) for 1 h at 4° C. Insoluble debris was removed by centrifugation at 16,000 g for 5 min at 4° C. Crystallization screens were performed by the sparse matrix crystallization method based upon previously published crystallization conditions for rhodopsin and opsin. Each hanging drop was prepared by mixing equal volumes of solubilized opsin and a reservoir solution containing 3.0-3.6 M ammonium sulfate in 0.05-0.1 M sodium acetate buffer, pH 5.2-5.6. Crystals appeared within 2-5 days at 4° C. and were analyzed directly by Raman spectroscopy.\nHere, we used Raman microscopy to test if YC-001 binds rod opsin in a single crystal. A rod opsin crystal was transferred into 4.5 μL of fresh reservoir solution on a siliconized glass coverslip and transferred into a hanging drop crystallization tray where the well contained 1 mL of the same solution. An 80 mW, 647.1 nm Kr^+ laser beam (Innova 70 C, Coherent, Palo Alto, CA, USA) was focused on the rod opsin crystal with a 20× objective. The Raman spectrum of the rod opsin crystal was accumulated over 100×1 s. […]"}},
  "data": [
    {"smiles": "O=C1OCC(c2ccc(Cl)s2)=C1c1cccs1", "note": "[YC-001]", "values": [
      {"measurement": "amount of YC-001 per eye", "setting": "[1]; 0.5 h after i.p. injection at 200 mg kg−1 bw", "result": "About 70 pmol per eye"},
      {"measurement": "amount of YC-001 per eye", "setting": "[1]; 3 h after i.p. injection at 200 mg kg−1 bw", "result": 280, "unit": "pmol per eye"},
      {"measurement": "amount of YC-001 per eye", "setting": "[1]; 24 h after i.p. injection at 200 mg kg−1 bw", "result": "undetectable"},
      {"measurement": "behavioral or bw growth changes", "setting": "[2]", "result": "no obvious behavioral or bw growth changes"},
      {"measurement": "recovery of 11-cis-retinyl oxime after photobleaching", "setting": "[3]", "result": "little difference"},
      {"measurement": "mode of binding to rod opsin", "setting": "[4]", "result": "non-covalent binding"}
    ]}
  ]
}
